From patent US9987216B2, “Plant fat composition for cosmetic preparation” (priority 2016, dated 2018)

Key:
[1] = Journal of the American College of Toxicology Vol. 6, No. 3, 1987; cited from earlier work
[2] = system: skin on the inner side of the upper arm; test: Skin irritation in the test subjects of the TEWL test; type: in vivo; settings: all test subjects (n=6), 100 μl on the skin
Experimental: 100 μl of each product was applied to the skin on the inner side of the upper arm and kept absorbed into the skin for 5 minutes. The transepidermal water loss was then measured at predetermined intervals. In addition, all the test subjects (n=6) had no irritation to both the plant fat composition of the present invention and the plant-derived squalane.

[3] = DPPH radical scavenging (antioxidative effect); settings: concentration of 10%; 30 minutes in the dark, absorbance 540 nm
Experimental: DPPH (2,2-diphenyl-1-picryl-hydrazyl) is a purple-colored stable free radical substance that receives hydrogens from an antioxidant to undergo decolorization. Upon exposure to an antioxidant, the DPPH acts as a […] the antioxidant and becomes removed of free radicals, resulting in decolorization, which makes it possible to evaluate the radical-scavenging activity.
Vitamin E (acetate) was used as a control.
(a) Prepare a 0.2 mM DPPH reagent dissolved in n-hexane.
(b) Prepare test samples by concentration.
(c) Add 100 μl of the reagent and 100 μl of each sample in four wells of a 96-well test plate.
(d) Add 100 μl of the reagent and 100 μl of a solvent in four wells to remove the blank value.
(e) Kept in the dark for 30 minutes at the room temperature.
(f) Measure the absorbance at 540 nm with an ELISA reader (TECAN microplate reader).
Analysis Method (Calculation Method) DPPH radical scavenging ability (%)=[1−(absorbance of sample/absorbance of blank)]×100

SMILES | safety in use for cosmetic formulations [1] | also measured
CCCCCCCCCCCC(=O)O [lauric acid] | safe | –
CCCCCCCCCCCCCC(=O)O [myristic acid] | safe | –
CCCCCCCC/C=C\CCCCCCCC(=O)O [oleic acid] | safe | –
CCCCCCCCCCCCCCCC(=O)O [palmitic acid] | safe | –
CC(C)CCCC(C)CCCC(C)CCCCC(C)CCCC(C)CCCC(C)C (stereo not shown) [plant-derived squalane, squalane] | – | skin irritation [2]: no irritation
CCCCCCCCCCCCCCCCCC(=O)O [stearic acid] | safe | –
CC(=O)Oc1c(C)c(C)c2c(c1C)CCC(C)(CCC[C@H](C)CCC[C@H](C)CCCC(C)C)O2 (stereo partly shown) [vitamin E, Vitamin E (acetate)] | – | DPPH radical scavenging activity [3]: 5%
